Test results: publication PMC6571673, “Cytostatic and Cytotoxic Natural Products against Cancer Cell Models” (Molecules, 2019)

How the values were obtained:
Type in all cases: cell-based, human
SUP-B15 = experiment: Annexin V/PI apoptosis flow cytometry assay; conditions: SUP-B15, 24 h; 8 5 µM, 9 10 µM, 10 5 µM, 12 10 µM, 13 10 µM
Experimental: (§1) The samples were probed with AnnexinV-FITC (Roche/Boehringer Mannheim, Indianapolis, IN, USA) according to the manufacturer’s instructions. KOPN-8 or SUB-P15 cells were plated (1.00 × 10^6 cells/plate) and incubated for 12 h and incubated at 37 °C. Then, cells were treated with compounds or controls for 24 h. Cells were stained with AnnexinV-FITC, PI and the staining profiles were determined with FACScan and Cell-Quest software. For cellular DNA content, the same cell treatment as above was performed. Then, cells were fixed in cold 75% ethanol, treated with RNase and then stained with PI solution (50 µg/mL). Cell cycle distribution was analyzed with the FACSCalibur analyzer (BD Biosciences, Franklin Lakes, NJ, USA) and Cell-Quest software. The percentage of DNA content at different phases of the cell cycle was analyzed with ModFit-software (version 5.0, Verity Software House, Topsham, ME, USA).

KOPN-8 = experiment: Annexin V/PI apoptosis flow cytometry assay; conditions: KOPN-8, 24 h; 8 5 µM, 9 10 µM, 10 5 µM, 12 10 µM, 13 10 µM
Experimental: as §1

[1] = test system: de novo protein synthesis in MDA-MB-231; experiment: EZClick in-cell-click de novo protein synthesis assay; conditions: MDA-MB-231, 2 h exposure time
Excerpt: Protein synthesis is essential in cell growth, proliferation, signaling, differentiation, and death. […] The assay includes a robust chemical method based on an alkyne containing o-propargyl-puromycin probe, which stops translation by forming covalent conjugates with nascent polypeptide chains. Truncated polypeptides are rapidly turned over by the proteasome and can be detected based on the subsequent click reaction with a fluorescent azide. To test whether these compounds (4–14) induced de novo protein synthesis inhibition, compounds were tested for a 2 h exposure time, under the same conditions as the known protein synthesis inhibitor cycloheximide (CHX) in MDA-MB-231 cell model following an in-cell-click de novo protein synthesis assay.
Biovision’s EZClick™ protein synthesis monitoring assay kit (EZClick™ Global Protein Synthesis Assay Kit, Catalog # K715-100, Milpitas, CA, USA) was used according to manufacturer’s protocol. The assay was conducted in 8-well chambered coverslips (ibidi GmbH µ-slide # 80826, Martinsried, Germany). Cells were plated at 2 × 10^4 per well and incubated at 37 °C for 12 h. Then, the cells were treated with compounds for 1.5 h and processed and stained according to protocol (representative images shown in Figure 4). Protein synthesis activity is shown in red, DNA staining is shown in green. Cycloheximide (CHX) was used as a positive control and DMSO as the negative control. Images shown were taken with a Marianas CSU-X spinning disk confocal imaging system (3i, Denver, CO, USA) configured with a Zeiss Axio Observer microscope (Carl Zeiss Inc., Thornwood, NY, USA) with diode lasers, at 63× magnification and resolution of 512 × 512 pixels (3i). For each field of view, an image stack consisting of 20 optical sections were taken at 63× magnification. The total intensity of red and green staining was quantified for the entire image stack. Six fields of view were analyzed per condition. Images shown represent a single optical section for each field of view. For each stack, the red intensity (protein synthesis) was adjusted to the green intensity (DNA content) in each image. The numbers from six images were used to calculate the average and standard deviation for each condition. Numbers were normalized to the negative control value arbitrarily set to one. The Slide viewer 6 software package was used for rendering and analysis of the images.

## COC1=C[C@]23CCCN2CCc2cc4c(cc2[C@@H]3[C@@H]1O)OCO4 [Compound 9, cephalotaxine]
SUP-B15
  live cells (Annexin-, PI-): small decrease in live cells
KOPN-8
  live cells (Annexin-, PI-): small decrease in live cells
[1]
  concentration at which de novo protein synthesis is inhibited: 10 µM
